Source: patent US7951775B2, “Methods and pharmaceutical compositions for GnRH-I and GnRH-II modulation of T-cell activity, adhesion, migration and extravasation” (priority 2001, dated 2011)
Where a SMILES comes first, the peptide text is derived from it. [ ]: non-standard residue; d: D form. dPhe(4-Cl) = N[C@H](Cc1ccc(Cl)cc1)C(=O)O; d2Nal = N[C@H](Cc1ccc2ccccc2c1)C(=O)O; dCit = NC(=O)NCCC[C@@H](N)C(=O)O; d3Pal = N[C@H](Cc1cccnc1)C(=O)O

Experiments:
normal human T-cells [1] = experiment: Double immunofluorescence staining (FACS) for surface 67 kDa laminin receptor and TCR; type: cell-based
Method: Normal human T-cells, isolated from fresh peripheral blood lymphocytes, or EL-4 T-lymphocyte cells were subjected to double immunofluorescence staining, using a mouse monoclonal anti-67 kDa LR antibody (100 μl of 1:20 dilution per 1×10^6 cells/tube; 30 minutes on ice), or normal mouse sera for control. The cells were then stained with an FITC-conjugated goat anti-mouse IgG (100 μl of 1:100 dilution), and PE-conjugated mouse anti-human TCR αβ mAb (2 μl of stock). Cells that were stained only with the second and third antibodies served as additional negative controls. Fluorescence profiles were recorded in a FACSORT. To determine whether GnRH-II and GnRH-I trigger not only the gene transcription but also the surface expression of the 67 kDa LR, normal human T-cells were treated with either GnRH-II or GnRH-I for 18-66 h and subjected to double immunofluorescence staining using a monoclonal antibody (mAb) that is specific for the 67 kDa LR, and a phycoerythrin (PE)-conjugated anti-TCRαβ mAb (to confirm the T-cell origin of the cells). FIGS. 2A-2C show the staining for the untreated, GnRH-I treated and GnRH-II treated T-cells, respectively. The FACS profiles can be interpreted by division according to four categories: 1. Negative staining for both mAbs (double negative, lower left quadrant); 2. Single positive staining only with the anti-LR mAb (lower right quadrant), 3. Single positive staining only with the anti-TCR mAb (upper left quadrant); 4. Double positive staining with both mAbs (upper right quadrant). […] In different experiments, each using freshly isolated T-cells from a different human donor, both GnRH II and GnRH I repeatedly elevated the laminin receptor expression level, but the magnitude of elevation varied within a range of 6-40%. Such variations between T-cell populations originating from different donors are often observed in respect to various T-cell features and functions.

normal human T-cells [2] = experiment: Quantitative RT-PCR of 67 kDa laminin receptor mRNA in T-cells; type: cell-based

CC(=O)N[C@H](Cc1ccc2ccccc2c1)C(=O)N[C@H](Cc1ccc(Cl)cc1)C(=O)N[C@H](Cc1cccnc1)C(=O)N[C@@H](CO)C(=O)N[C@@H](Cc1ccc(O)cc1)C(=O)N[C@H](CCCNC(N)=O)C(=O)N[C@@H](CC(C)C)C(=O)N[C@@H](CCCNC(=N)N)C(=O)N1CCC[C@H]1C(=O)N[C@H](C)C(N)=O [Cetrorelix, reference compound] (Ac-[d2Nal][dPhe(4-Cl)][d3Pal]SY[dCit]LRP[dA]-NH2)
block of GnRH-I induced upregulation in surface expression of the 67 kDa LR (normal human T-cells [1]; 100 nM Cetrorelix + 10 nM GnRH-I (FIG. 2E)): blocked
block of GnRH-II effect on surface expression of the 67 kDa LR (normal human T-cells [1]; 100 nM Cetrorelix + 10 nM GnRH-II (FIG. 2E)): did not block
block of GnRH-I induced upregulation in gene expression of the 67 kDa LR (normal human T-cells [2]; 100 nM Cetrorelix + 10 nM GnRH-I (FIG. 2D)): blocked
block of GnRH-II effect on gene expression of the 67 kDa LR (normal human T-cells [2]; 100 nM Cetrorelix + 10 nM GnRH-II (FIG. 2D)): did not block
